Data from patent publication US8058242B2, “Chimeric proteins with natriuretic activity” (The University of Queensland, priority 2004, dated 2011).
Positions of bridges follow the written chain, without caps; N, C: chain ends. Residues, ends and D or L forms follow the SMILES beside them.

Key:
[1] = biological target: Endopeptidase (NEP) (EC 3.4.24.11) (Homo sapiens, UniProt P08473); assay: Stability to enzymatic degradation by NEP (Examples 7, 16); assay type: in vitro ADME; conditions: over the 180 min measurement period, 37° C.
Chain of Endopeptidase (NEP) (EC 3.4.24.11) (P08473 whole entry): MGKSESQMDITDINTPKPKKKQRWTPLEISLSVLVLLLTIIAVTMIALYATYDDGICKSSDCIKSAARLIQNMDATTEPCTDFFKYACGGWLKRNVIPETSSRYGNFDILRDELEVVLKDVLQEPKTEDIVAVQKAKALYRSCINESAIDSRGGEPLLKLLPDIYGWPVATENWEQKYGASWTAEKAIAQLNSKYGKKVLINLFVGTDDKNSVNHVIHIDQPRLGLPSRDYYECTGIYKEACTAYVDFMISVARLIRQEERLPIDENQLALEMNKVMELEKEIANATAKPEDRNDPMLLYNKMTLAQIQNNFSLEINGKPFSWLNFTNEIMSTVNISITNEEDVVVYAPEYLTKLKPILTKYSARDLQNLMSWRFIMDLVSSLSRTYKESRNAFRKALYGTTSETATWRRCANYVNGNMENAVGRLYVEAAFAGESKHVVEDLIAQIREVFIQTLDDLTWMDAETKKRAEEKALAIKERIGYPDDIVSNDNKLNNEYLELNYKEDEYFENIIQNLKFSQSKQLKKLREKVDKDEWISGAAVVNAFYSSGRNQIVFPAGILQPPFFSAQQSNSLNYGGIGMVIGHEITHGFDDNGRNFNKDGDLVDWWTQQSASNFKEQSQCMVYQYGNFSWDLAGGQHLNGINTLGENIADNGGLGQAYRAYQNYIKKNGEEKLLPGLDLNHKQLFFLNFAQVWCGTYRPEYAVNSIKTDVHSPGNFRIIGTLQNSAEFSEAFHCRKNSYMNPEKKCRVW
Experimental: The incubation buffer contained 100 mM Tris/HCl and 150 mM NaCl and the pH was adjusted to 7.2-7.4. In each assay, 100 μl of peptide [500 μM] was incubated with 300 μl buffer (with 500 ng Endopeptidase (NEP) or 10 μg Plasmin) at 37° C. 50 μl aliquots were taken at times 5 min, 30 min, 60 min, 90 min, 180 min and 24 h. The reaction was quenched by heating to 100° C. for 4 min and the remaining peptide concentrations measured by RP-HPLC. Note that the levels of Plasmin required to degrade these peptides was several thousands time the levels present in human plasma.
The stability of TDT and was investigated using the same enzymatic degradation assays (NEP, plasmin, pepsin) disclosed in Example 7. […] It is also evident that the increased NEP stability cannot be explained by the length of the tail region alone as the NEP cleavage site residues at the N-terminal end of the loop region.

[2] = system: rats with chronic heart failure; assay: Rat model of chronic heart failure, left coronary artery occlusion, anesthetized (Example 10); conditions: HF rats
rat GC-A = biological target: T1, rat GC-A (Rattus norvegicus, UniProt P18910); assay: Cell cyclic GMP elevations in HEK-293 cells stably expressing rat GC-A (Example 4); assay type: cell-based; conditions: 0.1 μM; 293 cells over-expressing GC-A
T1 construct: expressed in transfected cells
T1 sequence (P18910 29-1057): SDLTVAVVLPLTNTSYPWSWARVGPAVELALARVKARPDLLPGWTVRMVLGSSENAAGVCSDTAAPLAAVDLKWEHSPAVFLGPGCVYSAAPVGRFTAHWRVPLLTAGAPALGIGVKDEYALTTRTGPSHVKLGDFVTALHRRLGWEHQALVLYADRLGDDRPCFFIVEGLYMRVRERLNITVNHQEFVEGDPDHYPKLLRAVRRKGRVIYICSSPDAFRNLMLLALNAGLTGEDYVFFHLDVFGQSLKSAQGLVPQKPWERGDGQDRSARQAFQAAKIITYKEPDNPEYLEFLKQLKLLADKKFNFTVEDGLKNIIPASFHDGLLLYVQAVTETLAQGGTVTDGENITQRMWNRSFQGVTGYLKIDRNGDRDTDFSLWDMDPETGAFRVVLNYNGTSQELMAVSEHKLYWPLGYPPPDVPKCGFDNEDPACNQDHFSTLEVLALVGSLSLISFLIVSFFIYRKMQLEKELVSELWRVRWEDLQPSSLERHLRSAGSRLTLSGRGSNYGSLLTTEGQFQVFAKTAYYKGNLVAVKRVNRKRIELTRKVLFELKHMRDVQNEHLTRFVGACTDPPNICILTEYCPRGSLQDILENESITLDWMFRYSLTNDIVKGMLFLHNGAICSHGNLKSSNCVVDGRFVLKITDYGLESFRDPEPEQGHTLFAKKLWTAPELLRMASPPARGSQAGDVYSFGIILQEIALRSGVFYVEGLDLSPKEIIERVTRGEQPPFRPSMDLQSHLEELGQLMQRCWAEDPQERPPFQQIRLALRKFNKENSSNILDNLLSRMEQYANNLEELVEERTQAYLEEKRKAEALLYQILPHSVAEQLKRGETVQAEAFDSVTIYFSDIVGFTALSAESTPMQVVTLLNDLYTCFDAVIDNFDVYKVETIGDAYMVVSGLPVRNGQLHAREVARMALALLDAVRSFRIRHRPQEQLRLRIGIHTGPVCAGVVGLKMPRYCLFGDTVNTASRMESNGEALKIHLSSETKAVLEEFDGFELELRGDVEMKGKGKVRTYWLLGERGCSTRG
Source text: The human embryonic kidney 293 (HEK-293) cell line was used for the stable expression of rat GC-A (GC-A/293). Cells expressing rat GC-A (GC-A/293) in the HEK-293 cell line were as previously described (Potter L. R., and Garbers D. L., (1992), J Biol Chem. 26, 14531-4) and determination of cGMP elevations was undertaken as previously described (Chrisman et al. T. D., Schulz, S., Potter, L. R. and Garbers, D. L., (1993,) J. Biol. Chem. (1993) 268 (5), 3698-3703). Responses were expressed as a percentage of the effect produced by ANP.

[3] = Stability assay in rat plasma (Example 6); assay type: in vitro ADME; conditions: 24 h at 37° C., read-out: peptide remaining in plasma
Experimental: Stability assay in human and rat plasma: Human or rat plasma (sample size 200 μL) was incubated at 37° C. for 5 min. 50 μL peptide stock solution (5 mg/mL) was added to the plasma. The vortexed reaction mixture was incubated at 37° C. Sample aliquots of 30 μL were taken from the reaction mixture at sequential intervals of 0 h, 1 h, 2 h, 4 h and 24 h and the sample reaction quenched immediately with 30 μL extraction buffer containing 50% Acetonitrile, 50% 0.1 M NaCl and 1% TFA. The quenched aliquots were cooled in ice for 5 min prior to centrifugation at 14,000 rpm for 15 min. 20 μl of the supernatant from each of the centrifuged aliquots was injected into RP-HPLC for analysis.

## CC[C@H](C)[C@H](NC(=O)[C@H](CCCCN)NC(=O)[C@H](CO)NC(=O)[C@H](CC(=O)O)NC(=O)[C@@H](N)CO)C(=O)NCC(=O)N[C@@H](CC(N)=O)C(=O)NCC(=O)N[C@H]1CSSC[C@@H](C(=O)N[C@@H](CC(N)=O)C(=O)N[C@@H](CCCNC(=N)N)C(=O)N[C@H](C(=O)N[C@@H](CCSC)C(=O)N[C@@H](CCC(N)=O)C(=O)N[C@@H](CC(N)=O)C(=O)N2CCC[C@H]2C(=O)N2CCC[C@H]2C(=O)N[C@@H](CCCCN)C(=O)N[C@@H](CCCCN)C(=O)N[C@@H](Cc2ccccc2)C(=O)N[C@@H](CO)C(=O)NCC(=O)N[C@@H](CCC(=O)O)C(=O)O)[C@@H](C)CC)NC(=O)CNC(=O)[C@H](CC(C)C)NC(=O)CNC(=O)[C@H](CO)NC(=O)[C@H](C(C)C)NC(=O)[C@H](CO)NC(=O)CNC(=O)[C@H]([C@@H](C)CC)NC(=O)[C@H](CCCNC(=N)N)NC(=O)[C@H](CC(=O)O)NC(=O)[C@H](CC(C)C)NC(=O)[C@@H]2CCCN2C(=O)[C@H](Cc2ccccc2)NC(=O)CNC(=O)[C@H](Cc2ccccc2)NC1=O [TNPc] (H-SDSKIGNGCFGFPLDRIGSVSGLGCNRIMQNPPKKFSGE-OH; disulfide 9-25)
[1]
  degradation by NEP: did not show any degradation
[2]; 50 pmol/kg/min, 30 min
  Blood Flow, mean change from control: -1.6 mL/min
  Conductance, mean change from control: −0.2 ml/min/mmHg
  Diastolic LVP, mean change from control: −0.9 mmHg
  HCT, mean change from control: 1.5%
  HR, mean change from control: −5.2 bpm
  Mean BP, mean change from control: −11.8 mmHg
  Urine Flow, mean change from control: 1.0 mL/h
[2]; 100 pmol/kg/min, 30 min
  Blood Flow, mean change from control: -2.9 mL/min
  Conductance, mean change from control: −0.4 ml/min/mmHg
  Diastolic LVP, mean change from control: −1.6 mmHg
  HCT, mean change from control: 2.4%
  HR, mean change from control: −14.8 bpm
  Mean BP, mean change from control: −20.1 mmHg
  Urine Flow, mean change from control: 1.7 mL/h
[2]; Recovery
  Blood Flow, mean change from control: -0.5 mL/min
  Conductance, mean change from control: 0.6 ml/min/mmHg
  Diastolic LVP, mean change from control: −1.4 mmHg
  HCT, mean change from control: 0.8%
  HR, mean change from control: −16.5 bpm
  Mean BP, mean change from control: −13.6 mmHg
  Urine Flow, mean change from control: 0.9 mL/h
[2]; average of the two doses
  Blood Flow, Average drug response SED: -2.2 ± 0.5 mL/min
  Conductance, Average drug response SED: −0.3 ± 0.3 ml/min/mmHg
  Diastolic LVP, Average drug response SED: −1.2±0.5 mmHg
  HCT, Average drug response SED: 1.9 ± 0.5%
  HR, Average drug response SED: −10.0 ± 6.9 bpm
  Mean BP, Average drug response SED: −15.9±4.1 mmHg
Rat GC-A
  cGMP elevations, percentage of the effect produced by ANP: equipotent to ANP and DNP
[3]
  remaining at 24 h, 1 mg/mL: 76%
